Laboratory results: PubChem BioAssay AID2060627 (Molecular Pharmacology Branch, DTP, NCI, 2025)
Values joined by “and” are separate entries in the source; they are usually repeats but may differ in a detail not shown here. Equal values may be shown once.

Test system: 156681-154-R-J1-PDC complex spheroid viability
Test: Anticancer human tumor 156681-154-R-J1-PDC patient-derived melanoma cell line growth inhibition [CLK]
Settings: for viability, T/C: stronger effect = lower value
How it was run: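 Multi-cell-type spheroids combined patient-derived tumor cells with HUVEC endothelial cells and human mesenchymal stem cells. Paired agents were dosed in half-log steps down from about clinical Cmax, or from 10 microM where Cmax was unknown.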

[1] = curve of first compound, second compound 0.0316 µM
[2] = curve of first compound, second compound 0.1 µM
[3] = curve of first compound, second compound 0.316 µM
[4] = curve of first compound, second compound 1 µM
[5] = curve of first compound, second compound 3.16 µM
[6] = curve of first compound, second compound 10 µM
[7] = second compound 0.0316 µM, first compound 0.0316 µM
[8] = second compound 0.0316 µM, first compound 0.1 µM
[9] = second compound 0.1 µM, first compound 0.0316 µM
[10] = second compound 0.1 µM, first compound 0.1 µM
[11] = second compound 0.316 µM, first compound 0.0316 µM
[12] = second compound 0.316 µM, first compound 0.1 µM
[13] = second compound 1 µM, first compound 0.0316 µM
[14] = second compound 1 µM, first compound 0.1 µM
[15] = second compound 3.16 µM, first compound 0.0316 µM
[16] = second compound 3.16 µM, first compound 0.1 µM
[17] = second compound 10 µM, first compound 0.0316 µM
[18] = second compound 10 µM, first compound 0.1 µM
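Further: spheroids exposed to the agents for seven days.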
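Wherever viability, T/C is given: 100% = DMSO vehicle control viability.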

## Cn1ncnc1[C@H]1c2n[nH]c(=O)c3cc(F)cc(c23)N[C@@H]1c1ccc(F)cc1 + CN1CCN(c2cc(C(=O)Nc3cc4cc(-c5cnn(C)c5)ccc4cn3)ccn2)CC1
[1]
  IC50: > 100 nM
[2]
  IC50: > 100 nM
[3]
  IC50: < 0.316 nM
[4]
  IC50: < 0.316 nM
[5]
  IC50: < 0.316 nM
[6]
  IC50: < 0.316 nM
Second compound 0.0316 µM, first compound 0.000316 µM
  viability, T/C: 88.8%
Second compound 0.0316 µM, first compound 0.001 µM
  viability, T/C: 91.7%
Second compound 0.0316 µM, first compound 0.00316 µM
  viability, T/C: 90.5%
Second compound 0.0316 µM, first compound 0.01 µM
  viability, T/C: 94.8%
[7]
  viability, T/C: 81.8%
[8]
  viability, T/C: 68.7%
Second compound 0.1 µM, first compound 0.000316 µM
  viability, T/C: 89%
Second compound 0.1 µM, first compound 0.001 µM
  viability, T/C: 84.5%
Second compound 0.1 µM, first compound 0.00316 µM
  viability, T/C: 75.2%
Second compound 0.1 µM, first compound 0.01 µM
  viability, T/C: 85.7%
[9]
  viability, T/C: 66.1%
[10]
  viability, T/C: 59.6%
Second compound 0.316 µM, first compound 0.000316 µM
  viability, T/C: 18.9%
Second compound 0.316 µM, first compound 0.001 µM
  viability, T/C: 23.7%
Second compound 0.316 µM, first compound 0.00316 µM
  viability, T/C: 18.3%
Second compound 0.316 µM, first compound 0.01 µM
  viability, T/C: 17.5%
[11]
  viability, T/C: 20.4%
[12]
  viability, T/C: 18.6%
Second compound 1 µM, first compound 0.000316 µM
  viability, T/C: 0.18%
Second compound 1 µM, first compound 0.001 µM
  viability, T/C: 2.71%
Second compound 1 µM, first compound 0.00316 µM
  viability, T/C: 0.14%
Second compound 1 µM, first compound 0.01 µM
  viability, T/C: 0.17%
[13]
  viability, T/C: 2.08%
[14]
  viability, T/C: 0.69%
Second compound 3.16 µM, first compound 0.000316 µM
  viability, T/C: 0.14%
Second compound 3.16 µM, first compound 0.001 µM
  viability, T/C: 1.63%
Second compound 3.16 µM, first compound 0.00316 µM
  viability, T/C: 1.37%
Second compound 3.16 µM, first compound 0.01 µM
  viability, T/C: 0.09%
[15]
  viability, T/C: 1.93%
[16]
  viability, T/C: 0.67%
Second compound 10 µM, first compound 0.000316 µM
  viability, T/C: 0.13%
Second compound 10 µM, first compound 0.001 µM
  viability, T/C: 3.21%
Second compound 10 µM, first compound 0.00316 µM
  viability, T/C: 2.34%
Second compound 10 µM, first compound 0.01 µM
  viability, T/C: 0.36%
[17]
  viability, T/C: 4.58%
[18]
  viability, T/C: 1.43%

## CCc1c2c(nc3ccc(O)cc13)-c1cc3c(c(=O)n1C2)COC(=O)[C@]3(O)CC
Compound 0.00316 µM
  viability, T/C: 38.3% and 25.9%
Compound 0.01 µM
  viability, T/C: 16.9% and 13.7%
Compound 0.0316 µM
  viability, T/C: 15.6% and 16.5%
Compound 0.1 µM
  viability, T/C: 21.3% and 17.4%
Compound 0.316 µM
  viability, T/C: 16.8% and 17.7%
Compound 1 µM
  viability, T/C: 4.59% and 4.21%
Curve of compound
  IC50: < 3.16 nM

## C=C(F)C(=O)N1CCN(c2nc(OCC3CCCN3C)nc3c2CCN(c2cccc4cccc(Cl)c24)C3)CC1CC#N (stereo not drawn) + CNC(=O)c1ccc(Nc2nc(OC3CCCC3)c3c(-c4ccc5nc(C)oc5c4)c[nH]c3n2)c(OC)c1
[1]
  IC50: 1730 nM
[2]
  IC50: 1110 nM
[3]
  IC50: 1260 nM
[4]
  IC50: 1020 nM
[5]
  IC50: < 31.6 nM
[6]
  IC50: < 31.6 nM
[7]
  viability, T/C: 70.9%
[8]
  viability, T/C: 92.6%
Second compound 0.0316 µM, first compound 0.316 µM
  viability, T/C: 76.5%
Second compound 0.0316 µM, first compound 1 µM
  viability, T/C: 87.4%
Second compound 0.0316 µM, first compound 3.16 µM
  viability, T/C: 15.2%
Second compound 0.0316 µM, first compound 10 µM
  viability, T/C: 0.17%
[9]
  viability, T/C: 45.3%
[10]
  viability, T/C: 56.5%
Second compound 0.1 µM, first compound 0.316 µM
  viability, T/C: 54.9%
Second compound 0.1 µM, first compound 1 µM
  viability, T/C: 59%
Second compound 0.1 µM, first compound 3.16 µM
  viability, T/C: 11.4%
Second compound 0.1 µM, first compound 10 µM
  viability, T/C: 2.23%
[11]
  viability, T/C: 46.7%
[12]
  viability, T/C: 49.5%
Second compound 0.316 µM, first compound 0.316 µM
  viability, T/C: 77.3%
Second compound 0.316 µM, first compound 1 µM
  viability, T/C: 66.5%
Second compound 0.316 µM, first compound 3.16 µM
  viability, T/C: 10%
Second compound 0.316 µM, first compound 10 µM
  viability, T/C: 0.09%
[13]
  viability, T/C: 59.3%
[14]
  viability, T/C: 53.3%
Second compound 1 µM, first compound 0.316 µM
  viability, T/C: 43.9%
Second compound 1 µM, first compound 1 µM
  viability, T/C: 50.9%
Second compound 1 µM, first compound 3.16 µM
  viability, T/C: 3.8%
Second compound 1 µM, first compound 10 µM
  viability, T/C: 0.09%
[15]
  viability, T/C: 48.2%
[16]
  viability, T/C: 33.5%
Second compound 3.16 µM, first compound 0.316 µM
  viability, T/C: 37.1%
Second compound 3.16 µM, first compound 1 µM
  viability, T/C: 42.6%
Second compound 3.16 µM, first compound 3.16 µM
  viability, T/C: 2.84%
Second compound 3.16 µM, first compound 10 µM
  viability, T/C: 0.11%
[17]
  viability, T/C: 39.2%
[18]
  viability, T/C: 37%
Second compound 10 µM, first compound 0.316 µM
  viability, T/C: 28.7%
Second compound 10 µM, first compound 1 µM
  viability, T/C: 40.4%
Second compound 10 µM, first compound 3.16 µM
  viability, T/C: 1.02%
Second compound 10 µM, first compound 10 µM
  viability, T/C: 4.8%

## CC(CO)NC(=O)c1cc(-c2ccc(Cl)cc2)nn(-c2cnn(C)c2)c1=O (stereo not drawn)
Compound 0.0316 µM
  viability, T/C: 97.5% and 93.1%
Compound 0.1 µM
  viability, T/C: 73.8% and 82.1%
Compound 0.316 µM
  viability, T/C: 100% and 94.2%
Compound 1 µM
  viability, T/C: 94.3% and 99.3%
Compound 3.16 µM
  viability, T/C: 87.3% and 77.8%
Compound 10 µM
  viability, T/C: 51.8% and 58.1%
Curve of compound
  IC50: > 10000 nM
